pKi: −log10 of the molar value. Structures can show the parent of a compound that is named as a salt.
Target: T1, histamine-3 (H3) receptor (Homo sapiens, UniProt Q9Y5N1)
T1 construct: expressed in transfected cells; host or cells: HEK293T
Test: Methyl Histamine Binding in Human Histamine-3 Receptor Cell Line
Settings: membranes of stably transfected HEK293T cells, radioligand 1 nM, Ki from IC50 by Cheng-Prusoff
Method: Evaluation of Methyl Histamine Binding in Human Histamine-3 Receptor Cell Line
The affinity of test compounds for the histamine-3 (H3) receptor is evaluated in the following manner. Stably transfected HEK293T cells are grown in DMEM containing 10% heat inactivated FBS and G-418 (500 ug/ml). Cells are scraped from the plate, transferred to centrifuge tubes, washed one time in PBS by centrifugation in a Sorvall RT7 Plus centrifuge (2000 rpm 10 minutes, 4° C.). The resulting pellets are stored at 80° C. until ready for use. Cells are re-suspended in buffer (50 mM Tris pH=7.5) and placed in a Dounce homogenizer, douncing ten times to homogenize cells. The homogenate is spun down by centrifugation (Sorvall RT7 Plus, 1800 rpm 10 minutes, 4° C.). The supernatant is placed in a Corex tube and spun down by centrifugation (Sorvall RC 5c Plus, 17,000 rpm 20 minutes, 4° C.). The pellet is resuspended in buffer (50 mM Tris, pH 7.5). Protein concentration (ug/ul) is determined using the Micro-BCA Protein Determination. The binding assay is set up in a 96 well microtiter plate in a total volume of 250 uL. Non-specific binding is determined in the presence of 10 uM clobenpropit. The final radioligand concentration is 1 nM. The test compound is serially diluted using the Beckman Biomek2000 to a final approximate range of 100 uM to 100 pM. Membranes are suspended in buffer, homogenized in 2 bursts of ten seconds using a Vitris mechanical homogenizer set at power setting 5. Ten μg of membranes are added to each well. Following a one hour incubation at 30° C., the reaction is terminated by the addition of ice cold buffer and rapid filtration with a Packard Filtermate Harvester through a GF/B filter pre-soaked with 1% PEI for one hour. The plate is dried for one hour at 37° C. and 60 μL Microscint Scintillant is added to each well. The CPM per well is measured on a Packard Top Count NXT. Ki values are determined in nM. The Ki is calculated from the IC50 (i.e. the concentration of competing ligand which displaces 50% of the specific binding of the radioligand). CPM values are expressed as % specific binding and plotted vs compound concentration. A curve is fitted using a four-parameter logistic fit and the IC50 value is determined. The Ki is calculated from this using the Cheng-Prusoff equation: […]=IC50/1+(L/Kd) where L=concentration of free radioligand used in the assay, and Kd is the dissociation constant of the radioligand for the receptor. L is determined for each experiment by counting an aliquot of the diluted radioligand (corresponding to that added to each well) and the Kd has previously been determined under identical conditions for this cell line/radioligand.

T1 sequence (Q9Y5N1 whole entry): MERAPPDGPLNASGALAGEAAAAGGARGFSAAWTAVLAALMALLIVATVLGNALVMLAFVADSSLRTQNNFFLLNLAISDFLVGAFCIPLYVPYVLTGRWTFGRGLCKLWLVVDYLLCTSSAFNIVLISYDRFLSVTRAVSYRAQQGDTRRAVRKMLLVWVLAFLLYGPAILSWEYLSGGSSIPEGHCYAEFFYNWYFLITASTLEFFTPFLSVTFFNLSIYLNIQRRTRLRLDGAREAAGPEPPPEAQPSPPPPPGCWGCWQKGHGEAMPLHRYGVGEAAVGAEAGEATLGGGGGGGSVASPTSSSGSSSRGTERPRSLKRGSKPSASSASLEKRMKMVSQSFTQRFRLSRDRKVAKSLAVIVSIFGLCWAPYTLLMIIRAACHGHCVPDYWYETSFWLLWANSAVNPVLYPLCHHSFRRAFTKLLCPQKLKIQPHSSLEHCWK

| SMILES | pKi |
| --- | --- |
| Cn1c(Cc2ccc(-c3nc(CN4CCCC4)co3)cc2)nc2ccccc21 [Example 67, 1-Methyl-2-{4-[4-(pyrrolidin-1-ylmethyl)-1,3-oxazol-2-yl]benzyl}-1H-benzimidazole Fumarate] | ≥ 8.00 |
| c1ccc2c(c1)ncn2Cc1ccc(-c2nc(CN3CCCC3)cs2)cc1 [Example 71, 1-{4-[4-(Pyrrolidin-1-ylmethyl)-1,3-thiazol-2-yl]benzyl}-1H-benzimidazole Hydrochloride] | 7.60 to 8.00 |
| CC1CCCN1Cc1csc(-c2ccc(Cn3cnc4ccccc43)cc2)n1 (centres unmarked) [Example 72, 1-(4-{4-[(2-methylpyrrolidin-1-yl)methyl]-1,3-thiazol-2-yl}benzyl)-1H-benzimidazole] | ≥ 8.00 |
| c1ccc2c(c1)ncn2Cc1ccc(-c2nc(CN3CCCCC3)cs2)cc1 [Example 73, 1-{4-[4-(piperidin-1-ylmethyl)-1,3-thiazol-2-yl]benzyl}-1H-benzimidazole] | ≥ 8.00 |
| c1ccc2c(c1)ncn2Cc1ccc(-c2nc(CN3CCCCCC3)cs2)cc1 [Example 74, 1-{4-[4-(azepan-1-ylmethyl)-1,3-thiazol-2-yl]benzyl}-1H-benzimidazole] | ≥ 8.00 |
| c1ccc2c(c1)ccn2Cc1ccc(-c2nc(CN3CCCC3)co2)cc1 [Example 81, 1-{4-[4-(pyrrolidin-1-ylmethyl)-1,3-oxazol-2-yl]benzyl}-1H-indole Hydrochloride] | 7.00 to 7.30 |
| c1ccc2c(c1)cnn2Cc1ccc(-c2nc(CN3CCCC3)co2)cc1 [Example 88, 1-{4-[4-(pyrrolidin-1-ylmethyl)-1,3-oxazol-2-yl]benzyl}-1H-indazole] | 7.00 to 7.30 |
| C[C@@H]1CCCN1Cc1coc(-c2ccc(Cn3ncc4ccccc43)cc2)n1 [Example 94, 1-[4-(4-{[(2R)-2-methylpyrrolidin-1-yl]methyl}-1,3-oxazol-2-yl)benzyl]-1H-indazole] | 7.00 to 7.30 |
| C[C@@H]1CCCN1Cc1coc(-c2ccc(Cn3ncc4cc(F)ccc43)cc2)n1 [Example 95, 5-fluoro-1-[4-(4-{[(2R)-2-methylpyrrolidin-1-yl]methyl}-1,3-oxazol-2-yl)benzyl]-1H-indazole] | 7.00 to 7.30 |
| C[C@@H]1CCCN1Cc1coc(-c2ccc(Cn3ncc4ccc(F)cc43)cc2)n1 [Example 96, 6-fluoro-1-[4-(4-{[(2R)-2-methylpyrrolidin-1-yl]methyl}-1,3-oxazol-2-yl)benzyl]-1H-indazole] | 7.00 to 7.30 |
| C[C@H]1CCCN1Cc1coc(-c2ccc(Cn3ncc4ccccc43)cc2)n1 [Example 97, 1-[4-(4-{[(2S)-2-methylpyrrolidin-1-yl]methyl}-1,3-oxazol-2-yl)benzyl]-1H-indazole] | ≥ 8.00 |
| C[C@H]1CCCN1Cc1coc(-c2ccc(Cn3ncc4cc(F)ccc43)cc2)n1 [Example 98, 5-fluoro-1-[4-(4-{[(2S)-2-methylpyrrolidin-1-yl]methyl}-1,3-oxazol-2-yl)benzyl]-1H-indazole] | ≥ 8.00 |
| C[C@H]1CCCN1Cc1coc(-c2ccc(Cn3ncc4ccc(F)cc43)cc2)n1 [Example 99, 6-fluoro-1-[4-(4-{[(2S)-2-methylpyrrolidin-1-yl]methyl}-1,3-oxazol-2-yl)benzyl]-1H-indazole] | 7.60 to 8.00 |
| Fc1ccc2c(cnn2Cc2ccc(-c3nc(CN4CCCC4)co3)cc2)c1 [Example 100, 5-fluoro-1-{4-[4-(pyrrolidin-1-ylmethyl)-1,3-oxazol-2-yl]benzyl}-1H-indazole] | 7.60 to 8.00 |
| Fc1ccc2cnn(Cc3ccc(-c4nc(CN5CCCC5)co4)cc3)c2c1 [Example 101, 6-fluoro-1-{4-[4-(pyrrolidin-1-ylmethyl)-1,3-oxazol-2-yl]benzyl}-1H-indazole] | 7.30 to 7.60 |
| NCc1ccc2c(cnn2Cc2ccc(-c3nc(CN4CCCC4)co3)cc2)c1 [Example 102, 1-(1-{4-[4-(pyrrolidin-1-ylmethyl)-1,3-oxazol-2-yl]benzyl}-1H-indazol-5-yl)methanamine] | ≥ 8.00 |
| c1ccc2c(c1)ncn2Cc1ccc(-c2ncc(CN3CCCC3)o2)cc1 [Example 104, 1-{4-[5-(pyrrolidin-1-ylmethyl)-1,3-oxazol-2-yl]benzyl}-1H-benzimidazole] | < 7.00 |
| CC1CCCN1Cc1cnc(-c2ccc(Cn3cnc4ccccc43)cc2)o1 (centres unmarked) [Example 105, 1-(4-{5-[(2-methylpyrrolidin-1-yl)methyl]-1,3-oxazol-2-yl}benzyl)-1H-benzimidazole] | ≥ 8.00 |

Other lines, results leading:

| pKi | SMILES |
| --- | --- |
| ≥ 8.00 | C[C@H]1CCCN1Cc1cnc(-c2ccc(Cn3cnc4ccccc43)cc2)o1 [Example 106, 1-[4-(5-{[(2S)-2-methylpyrrolidin-1-yl]methyl}-1,3-oxazol-2-yl)benzyl]-1H-benzimidazole] |
| < 7.00 | c1ccc2c(c1)ncn2Cc1ccc(-c2ncc(CN3CCCCC3)o2)cc1 [Example 107, 1-{4-[5-(piperidin-1-ylmethyl)-1,3-oxazol-2-yl]benzyl}-1H-benzimidazole] |
| 7.30 to 7.60 | C[C@@H]1CCCN1Cc1cnc(-c2ccc(Cn3cnc4ccccc43)cc2)o1 [Example 108, 1-[4-(5-{[(2R)-2-methylpyrrolidin-1-yl]methyl}-1,3-oxazol-2-yl)benzyl]-1H-benzimidazole] |
| < 7.00 | CC1CCCN(Cc2cnc(-c3ccc(Cn4cnc5ccccc54)cc3)o2)C1 (centres unmarked) [Example 109, 1-(4-{5-[(3-methylpiperidin-1-yl)methyl]-1,3-oxazol-2-yl}benzyl)-1H-benzimidazole] |
| < 7.00 | CC1(C)CC2CC(C)(CN2Cc2cnc(-c3ccc(Cn4cnc5ccccc54)cc3)o2)C1 (centres unmarked) [Example 110, 1-(4-{5-[(1,3,3-trimethyl-6-azabicyclo[3.2.1]oct-6-yl)methyl]-1,3-oxazol-2-yl}benzyl)-1H-benzimidazole] |
| < 7.00 | c1ccc2c(c1)ncn2Cc1ccc(-c2ncc(CN3CCCCCC3)o2)cc1 [Example 111, 1-{4-[5-(azepan-1-ylmethyl)-1,3-oxazol-2-yl]benzyl}-1H-benzimidazole] |
| < 7.00 | CCN(C)Cc1cnc(-c2ccc(Cn3cnc4ccccc43)cc2)o1 [Example 112] |
| < 7.00 | CCN(CC)Cc1cnc(-c2ccc(Cn3cnc4ccccc43)cc2)o1 [Example 113, N-({2-[4-(1H-benzimidazol-1-ylmethyl)phenyl]-1,3-oxazol-5-yl}methyl)-N-ethylethanamine] |
| ≥ 8.00 | FC(F)(F)c1nc2ccccc2n1Cc1ccc(-c2nc(CN3CCCC3)co2)cc1 [Example 114] |
| ≥ 8.00 | c1ccc(-c2nc3ccccc3n2Cc2ccc(-c3nc(CN4CCCC4)co3)cc2)cc1 [Example 115, 2-phenyl-1-{4-[4-(pyrrolidin-1-ylmethyl)-1,3-oxazol-2-yl]benzyl}-1H-benzimidazole] |
| 7.60 to 8.00 | C[C@@H]1CCCN1Cc1coc(-c2ccc(Cn3c(C(F)(F)F)nc4ccccc43)cc2)n1 [Example 116, 1-[4-(4-{[(2R)-2-methylpyrrolidin-1-yl]methyl}-1,3-oxazol-2-yl)benzyl]-2-(trifluoromethyl)-1H-benzimidazole] |
| ≥ 8.00 | C[C@H]1CCCN1Cc1coc(-c2ccc(Cn3c(-c4ccccc4)nc4ccccc43)cc2)n1 [Example 117, 1-[4-(4-{[(2S)-2-methylpyrrolidin-1-yl]methyl}-1,3-oxazol-2-yl)benzyl]-2-phenyl-1H-benzimidazole] |
| 7.60 to 8.00 | C[C@H]1CCCN1Cc1coc(-c2ccc(Cn3c(C(F)(F)F)nc4ccccc43)cc2)n1 [Example 118, 1-[4-(4-{[(2S)-2-methylpyrrolidin-1-yl]methyl}-1,3-oxazol-2-yl)benzyl]-2-(trifluoromethyl)-1H-benzimidazole] |
| 7.60 to 8.00 | C[C@@H]1CCCN1Cc1coc(-c2ccc(Cn3c(-c4ccccc4)nc4ccccc43)cc2)n1 [Example 119, 1-[4-(4-{[(2R)-2-methylpyrrolidin-1-yl]methyl}-1,3-oxazol-2-yl)benzyl]-2-phenyl-1H-benzimidazole] |
| 7.60 to 8.00 | FC(F)(F)c1nc2ccccc2n1Cc1ccc(-c2nc(CN3CCCCCC3)co2)cc1 [Example 120, 1-{4-[4-(azepan-1-ylmethyl)-1,3-oxazol-2-yl]benzyl}-2-(trifluoromethyl)-1H-benzimidazole] |
| 7.30 to 7.60 | c1ccc(-c2nc3ccccc3n2Cc2ccc(-c3nc(CN4CCCCCC4)co3)cc2)cc1 [Example 121, 1-{4-[4-(azepan-1-ylmethyl)-1,3-oxazol-2-yl]benzyl}-2-phenyl-1H-benzimidazole] |
| 7.60 to 8.00 | FC(F)(F)c1nc2ccccc2n1Cc1ccc(-c2nc(CN3CCCCC3)co2)cc1 [Example 122, 1-{4-[4-(piperidin-1-ylmethyl)-1,3-oxazol-2-yl]benzyl}-2-(trifluoromethyl)-1H-benzimidazole] |

From patent publication US7803825B2, “Aminoalkylazole derivatives as histamine-3 antagonists” (Wyeth LLC, priority 2007, dated 2010)
